Measured values published in publication PMC5458078, “Global mapping of CARM1 substrates defines enzyme specificity and substrate recognition” (Nature Communications, 2017).

How the values were obtained:
MCF7 cells = assay: Quantitative nanoLC-MS/MS (TMT) of ADMA-containing peptides, CARM1 KO vs parental; format: cell-based, human; parameters: Fold change KO/WT: scale not given here
MCF7 CARM1 KO cells = assay: Quantitative MS of ADMA-containing peptides in MCF7 CARM1 KO cells expressing CARM1 28-608 or CARM1 140-608, and in CARM1 KO; format: cell-based, human
[1] = MCF7, CARM1 KO (KO1-KO3) vs wild type (WT1-WT3)
[2] = CARM1 140-608 versus WT, mean of three replicates (log2)
[3] = KO versus WT, mean of three replicates (log2)
[4] = MCF7, CARM1 knockout vs wild type, n = 3 each
[5] = ratio on log2 scale, mean of 3 replicates
[6] = MCF7 CARM1 knockout vs wild type, 3 biological replicates each, values are on log2 scale
[7] = mean, CARM1 140-608 versus WT (log2 scale)
[8] = mean, CARM1 KO versus WT (log2 scale)
[9] = CARM1 140-608 vs WT, mean of 3 replicates (log2 scale)
[10] = KO vs WT, mean of 3 replicates (log2 scale)
[11] = ADMA-containing peptide, MCF7, CARM1 knockout (KO1-3) vs wild type (WT1-3), TMT 6-plex experiment #1
[12] = CARM1 KO vs wild type MCF7 cells, 3 biological replicates each
[13] = CARM1 140-608 versus WT, difference of mean log2 values
[14] = CARM1 KO versus WT, difference of mean log2 values
[15] = ADMA-containing peptide, CARM1 knockout (KO) vs wild type (WT) MCF7 cells, 6-plex TMT experiment #1, three biological replicates each, sheet "MCF7"
[16] = log2 scale ratio, mean of n = 3
[17] = MCF7, CARM1 KO vs WT, three biological replicates each
[18] = CARM1 140-608 vs WT, mean of 3 replicates, log2
[19] = KO vs WT, mean of 3 replicates, log2

QLESLWSDSPAPPGPQAGPPSRPPrYSSSSIPEPFGSR
Fold change KO/WT (MCF7 cells; [1]): -2.771 | CARM1 140-608/WT (MCF7 CARM1 KO cells; [2]): -1.865 | KO/WT (MCF7 CARM1 KO cells; [3]): -2.771

GPPLArLPHDPGVFR
Fold change KO/WT (MCF7 cells; [4]): -1.8 | CARM1 140-608/WT (MCF7 CARM1 KO cells; [5]): -1.527 | KO/WT (MCF7 CARM1 KO cells; [5]): -1.8

INPGLEYrQHLLLR
Fold change KO/WT (MCF7 cells; [6]): -1.551

GVGPPrGALVrGTPVrGAITR
Fold change KO/WT (MCF7 cells; [6]): -0.04858 | CARM1 140-608/WT (MCF7 CARM1 KO cells; [7]): 0.2467 | KO/WT (MCF7 CARM1 KO cells; [8]): 0.3361

MGLLSPSGIGGVSPrHALTSPSLGGQGR
Fold change KO/WT (MCF7 cells; [1]): -1.616 | CARM1 140-608/WT (MCF7 CARM1 KO cells; [9]): -0.809 | KO/WT (MCF7 CARM1 KO cells; [10]): -1.616

EVVrYLGGSGGAGGR
Fold change KO/WT (MCF7 cells; [1]): 0.2966 | CARM1 140-608/WT (MCF7 CARM1 KO cells; [9]): -0.0149 | KO/WT (MCF7 CARM1 KO cells; [10]): 0.2966

HQQLQQMrMQQPPAPVPTTTTTTQQHPrQAAPQMLQQQPPrLISVQTMQR
Fold change KO/WT (MCF7 cells; [11]): -1.659 | Fold change KO/WT (MCF7 cells; [12]): -1.574 | CARM1 140-608/WT (MCF7 CARM1 KO cells; [13]): -0.9301 | KO/WT (MCF7 CARM1 KO cells; [14]): -2.355

NrGFYPWGQYNrGGYGNYR
Fold change KO/WT (MCF7 cells; [11]): -0.1483

SHGYKPHFVPNFNGPNAIrQFQPNQINENWK
Fold change KO/WT (MCF7 cells; [4]): -2.033 | CARM1 140-608/WT (MCF7 CARM1 KO cells; [5]): -1.237 | KO/WT (MCF7 CARM1 KO cells; [5]): -2.033

GPPGGNrGGFQNrGGGSGGGGNYrGGFNR
Fold change KO/WT (MCF7 cells; [6]): 0.2458 | CARM1 140-608/WT (MCF7 CARM1 KO cells; [7]): 0.1824 | KO/WT (MCF7 CARM1 KO cells; [8]): 0.1614

QAAPQMLQQQPPrLISVQTMQR
Fold change KO/WT (MCF7 cells; [12]): -1.292 | CARM1 140-608/WT (MCF7 CARM1 KO cells; [13]): -0.6208 | KO/WT (MCF7 CARM1 KO cells; [14]): -1.292

AGPrLLLIPVQQGSPTLRPVSNTQLQGHrMVLQPVR
Fold change KO/WT (MCF7 cells; [15]): -0.6769

QSHTLPFPPPPALPFYPASAYPrHFGPVPPSQGR
Fold change KO/WT (MCF7 cells; [4]): -1.33 | CARM1 140-608/WT (MCF7 CARM1 KO cells; [5]): -0.8989 | KO/WT (MCF7 CARM1 KO cells; [5]): -1.33

GGAPFQFGGQrRPLLSQLK
Fold change KO/WT (MCF7 cells; [4]): -0.3698 | CARM1 140-608/WT (MCF7 CARM1 KO cells; [5]): 0.1701 | KO/WT (MCF7 CARM1 KO cells; [5]): 0.08114

GSRLPLALPPASQGCSSGGGGGGGGGSSAGGSGNSrPPR
Fold change KO/WT (MCF7 cells; [6]): -0.9721 | CARM1 140-608/WT (MCF7 CARM1 KO cells; [7]): -0.7656 | KO/WT (MCF7 CARM1 KO cells; [8]): -0.9721

GGrGPFPLQVVSVGGPAR
Fold change KO/WT (MCF7 cells; [4]): -0.2975 | CARM1 140-608/WT (MCF7 CARM1 KO cells; [5]): -0.1124 | KO/WT (MCF7 CARM1 KO cells; [5]): -0.2975

APPVrYCIPGER
Fold change KO/WT (MCF7 cells; [4]): -5.161 | CARM1 140-608/WT (MCF7 CARM1 KO cells; [5]): -3.736 | KO/WT (MCF7 CARM1 KO cells; [5]): -5.161

AYGQQYWGQPGNrGGYrNFYDR
Fold change KO/WT (MCF7 cells; [6]): 0.1386 | CARM1 140-608/WT (MCF7 CARM1 KO cells; [7]): -0.223 | KO/WT (MCF7 CARM1 KO cells; [8]): 0.1923

CAGFLEPTWLAAPPrLArPPrFYEAGEELTGPGAVAAAR
Fold change KO/WT (MCF7 cells; [4]): -3.713 | CARM1 140-608/WT (MCF7 CARM1 KO cells; [5]): -2.314 | KO/WT (MCF7 CARM1 KO cells; [5]): -3.713

TPTATTSGIrATLTPTVLAPrLPQPPQNPTNIQNFQLPPGMVLVR
Fold change KO/WT (MCF7 cells; [11]): -3.04 | CARM1 140-608/WT (MCF7 CARM1 KO cells; [16]): 0.4964 | KO/WT (MCF7 CARM1 KO cells; [16]): -3.04

QGQPTPLVIQQPPKPGALIrPPQVTLTQTPMVALrQPHNR
Fold change KO/WT (MCF7 cells; [11]): -2.284 | CARM1 140-608/WT (MCF7 CARM1 KO cells; [16]): -1.328 | KO/WT (MCF7 CARM1 KO cells; [16]): -2.284

QrLPFSAPPGSVVEASSNLR
Fold change KO/WT (MCF7 cells; [6]): -1.459 | CARM1 140-608/WT (MCF7 CARM1 KO cells; difference of log2 means, CARM1 140-608 vs WT): -0.4663 | KO/WT (MCF7 CARM1 KO cells; difference of log2 means, KO vs WT): -1.419

RPQLYGMGSNPHSQPQQSSPYPGGSYGPPGPQrYPIGIQGR
Fold change KO/WT (MCF7 cells; [17]): -1.511

APVFPGrGSYSNR
Fold change KO/WT (MCF7 cells; [6]): -0.1545 | CARM1 140-608/WT (MCF7 CARM1 KO cells; [7]): 0.1704 | KO/WT (MCF7 CARM1 KO cells; [8]): 0.1127

NVNPVILLNTQTrPYGFGLNHGHTPYSSMLNQGLGVPGIGATQGLrTGFTNIPSrYGTNNR
Fold change KO/WT (MCF7 cells; [1]): -2.828 | CARM1 140-608/WT (MCF7 CARM1 KO cells; [9]): -1.7448 | KO/WT (MCF7 CARM1 KO cells; [10]): -2.828

GrGSLLLR
Fold change KO/WT (MCF7 cells; [15]): 1.1394 | CARM1 140-608/WT (MCF7 CARM1 KO cells; [2]): 0.6421 | KO/WT (MCF7 CARM1 KO cells; [3]): 1.1394

AGIGVYWGPGHPLNVGIrLPGR
Fold change KO/WT (MCF7 cells; [1]): -0.8432 | CARM1 140-608/WT (MCF7 CARM1 KO cells; [9]): -0.6349 | KO/WT (MCF7 CARM1 KO cells; [10]): -0.8432

IPYPAGTLPNPLLPHPLHENEVLrHQLFAAPYR
Fold change KO/WT (MCF7 cells; [17]): -1.146 | CARM1 140-608/WT (MCF7 CARM1 KO cells; [18]): -0.5059 | KO/WT (MCF7 CARM1 KO cells; [19]): -1.312

MrPQPYGGTNPYSQQQGPPSGPQQGHGYPGQPYGSQTPQrYPMTMQGR
Fold change KO/WT (MCF7 cells; [17]): -3.351

YLQTVQYGVHGNFPrLSYPTFFPR
Fold change KO/WT (MCF7 cells; [4]): -2.556 | CARM1 140-608/WT (MCF7 CARM1 KO cells; [7]): -2.496 | KO/WT (MCF7 CARM1 KO cells; [8]): -3.476

MGTPVPRPPQDMGQIGVrTPLGPrVAAPVGPVGPTPTVLPMGAPVPRPR
Fold change KO/WT (MCF7 cells; [1]): -3.424 | CARM1 140-608/WT (MCF7 CARM1 KO cells; [9]): -1.595 | KO/WT (MCF7 CARM1 KO cells; [10]): -3.449

GVVDSDDLPLNVSr
Fold change KO/WT (MCF7 cells; [6]): -0.9856 | CARM1 140-608/WT (MCF7 CARM1 KO cells; [7]): -0.04605 | KO/WT (MCF7 CARM1 KO cells; [8]): -1.284

LQHMQQQQPPPrLINFQNHSPKPNGPVLPPHPQQLrYPPNQNIPR
Fold change KO/WT (MCF7 cells; [11]): -0.9847

LPNRDFAFYNPrLQGK
Fold change KO/WT (MCF7 cells; [17]): -1.34

MQLQQrLQGQQFLNQSrQALELK
Fold change KO/WT (MCF7 cells; [15]): -3.454

GSGTGIYSNAAPPPVTYQGNLYrPLLrGQAQIPK
Fold change KO/WT (MCF7 cells; [12]): -4.659

AGPrLLLIPVQQGSPTLrPVSNTQLQGHrMVLQPVR
Fold change KO/WT (MCF7 cells; [15]): -0.8102

QQQQQQQQQQQQLDLLFHQrIQISLWPR
Fold change KO/WT (MCF7 cells; [4]): -2.494

CAGFLEPTWLAAPPRLArPPR
Fold change KO/WT (MCF7 cells; [4]): -1.124

GrGTLTrGAFVGATAAPGYIAPGYGTPYGYSTAAPAYGLPKR
Fold change KO/WT (MCF7 cells; [11]): -0.6705

SPYTTTrYGSPINTFTVRPGTR
CARM1 140-608/WT (MCF7 CARM1 KO cells; [18]): -0.1037 | KO/WT (MCF7 CARM1 KO cells; [19]): -2.259

GTPVrGAITR
Fold change KO/WT (MCF7 cells; [6]): -0.02001

TGALPGPGPLSNPrLGGLPGPGPMSNPrAGGLLGAGPDPR
Fold change KO/WT (MCF7 cells; [17]): -2.931

SPYTTTRYGSPINTFTVrPGTR
Fold change KO/WT (MCF7 cells; [17]): -3.3255

AYGQQYWGQPGNrGGYR
Fold change KO/WT (MCF7 cells; [6]): -0.04736

SLGSVQAPSYGARPVSSAASVYAGAGGSGSrISVSR
Fold change KO/WT (MCF7 cells; [6]): -1.494
